In ChEMBL document CHEMBL1129375, “Design and synthesis of a series of non-peptide high-affinity human corticotropin-releasing factor1 receptor antagonists” (J Med Chem, 1996):

What was measured:
[1] = biological target: T1, Corticotropin-releasing factor receptor 1 (Homo sapiens, UniProt P34998); experiment: Inhibition of [125I]CRF binding to human Corticotropin releasing factor receptor 1 tested at 6-12 doses
T1 sequence (P34998 whole entry): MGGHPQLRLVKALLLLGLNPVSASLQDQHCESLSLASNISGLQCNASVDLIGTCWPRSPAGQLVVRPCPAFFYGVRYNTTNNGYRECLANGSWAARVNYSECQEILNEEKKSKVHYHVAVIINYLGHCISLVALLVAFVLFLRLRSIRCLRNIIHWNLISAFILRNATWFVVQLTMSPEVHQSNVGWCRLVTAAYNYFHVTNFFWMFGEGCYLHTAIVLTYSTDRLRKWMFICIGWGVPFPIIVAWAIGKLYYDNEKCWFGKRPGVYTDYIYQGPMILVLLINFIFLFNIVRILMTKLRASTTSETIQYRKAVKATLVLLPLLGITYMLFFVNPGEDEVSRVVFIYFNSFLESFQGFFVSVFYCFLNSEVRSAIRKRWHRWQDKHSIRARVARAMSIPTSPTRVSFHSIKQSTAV

Homo sapiens = organism: Homo sapiens; experiment: Compound was evaluated for the inhibition of CRF-stimulated cyclic adenosine monophosphate production; assay type: functional, organism-based

Row | Structure (SMILES) | Ki [1] | IC50 (Homo sapiens)
1 | CCCN(CC1CC1)c1cc(Nc2c(Cl)cc(Cl)cc2Cl)ncn1 | > 10000 nM | –
2 | CCCN(CC1CC1)c1nc(C)cc(Nc2c(Cl)cc(Cl)cc2Cl)n1 | > 10000 nM | –
3 | CCCN(CC1CC1)c1cc(C)nc(Nc2c(Cl)cc(Cl)cc2Cl)n1 | 70 nM | –
4 | CCCN(CC1CC1)c1nc(C)nc(Nc2c(Cl)cc(Cl)cc2Cl)c1Br | 2 nM | –
5 | CCCN(CC1CC1)c1nc(C)nc(Nc2c(Cl)cc(Cl)cc2Cl)c1C | 2.3 nM | –
6 | CCCN(CC1CC1)c1nc(C)nc(N(C)c2c(Cl)cc(Cl)cc2Cl)c1C | 150 nM | –
7 | CCCN(CC1CC1)c1nc(C)nc(Nc2c(Cl)cc(Cl)cc2Cl)c1Cl | 1.7 nM | 100 nM
8 | CCCN(CCC)c1nc(C)nc(Nc2c(Cl)cc(Cl)cc2Cl)c1C | 2.5 nM | 250 nM
9 | CCCN(CC1CC1)c1cc(Nc2c(Cl)cc(Cl)cc2Cl)nc(C)n1 | 30 nM | 3700 nM
10 | CCCN(CC1CC1)c1nc(C)nc(Nc2c(Cl)cc(Cl)cc2Cl)c1CC | 3.8 nM | –
